# Test results reported in patent US20200231545A1, “CHARGED ION CHANNEL BLOCKERS AND METHODS FOR USE THEREOF” (President and Fellows of Harvard College, priority 2019, published 2020).
# Where “and” joins values, the source holds several entries; their conditions need not be identical. Equal entries are not always repeated.
# What was measured:
# human Nav1.7 channels = target: T1, human Nav1.7 channels (Homo sapiens, UniProt Q15858); assay: Whole-cell patch clamp, use-dependent block of sodium current, compound dialyzed inside cells; format: cell-based; conditions: 10 micromolar intracellular; stimulation series 0.05 to 10 Hz; HEK293 hNav1.7
# T1 construct: expressed in transfected cells
# T1 sequence (Q15858 whole entry): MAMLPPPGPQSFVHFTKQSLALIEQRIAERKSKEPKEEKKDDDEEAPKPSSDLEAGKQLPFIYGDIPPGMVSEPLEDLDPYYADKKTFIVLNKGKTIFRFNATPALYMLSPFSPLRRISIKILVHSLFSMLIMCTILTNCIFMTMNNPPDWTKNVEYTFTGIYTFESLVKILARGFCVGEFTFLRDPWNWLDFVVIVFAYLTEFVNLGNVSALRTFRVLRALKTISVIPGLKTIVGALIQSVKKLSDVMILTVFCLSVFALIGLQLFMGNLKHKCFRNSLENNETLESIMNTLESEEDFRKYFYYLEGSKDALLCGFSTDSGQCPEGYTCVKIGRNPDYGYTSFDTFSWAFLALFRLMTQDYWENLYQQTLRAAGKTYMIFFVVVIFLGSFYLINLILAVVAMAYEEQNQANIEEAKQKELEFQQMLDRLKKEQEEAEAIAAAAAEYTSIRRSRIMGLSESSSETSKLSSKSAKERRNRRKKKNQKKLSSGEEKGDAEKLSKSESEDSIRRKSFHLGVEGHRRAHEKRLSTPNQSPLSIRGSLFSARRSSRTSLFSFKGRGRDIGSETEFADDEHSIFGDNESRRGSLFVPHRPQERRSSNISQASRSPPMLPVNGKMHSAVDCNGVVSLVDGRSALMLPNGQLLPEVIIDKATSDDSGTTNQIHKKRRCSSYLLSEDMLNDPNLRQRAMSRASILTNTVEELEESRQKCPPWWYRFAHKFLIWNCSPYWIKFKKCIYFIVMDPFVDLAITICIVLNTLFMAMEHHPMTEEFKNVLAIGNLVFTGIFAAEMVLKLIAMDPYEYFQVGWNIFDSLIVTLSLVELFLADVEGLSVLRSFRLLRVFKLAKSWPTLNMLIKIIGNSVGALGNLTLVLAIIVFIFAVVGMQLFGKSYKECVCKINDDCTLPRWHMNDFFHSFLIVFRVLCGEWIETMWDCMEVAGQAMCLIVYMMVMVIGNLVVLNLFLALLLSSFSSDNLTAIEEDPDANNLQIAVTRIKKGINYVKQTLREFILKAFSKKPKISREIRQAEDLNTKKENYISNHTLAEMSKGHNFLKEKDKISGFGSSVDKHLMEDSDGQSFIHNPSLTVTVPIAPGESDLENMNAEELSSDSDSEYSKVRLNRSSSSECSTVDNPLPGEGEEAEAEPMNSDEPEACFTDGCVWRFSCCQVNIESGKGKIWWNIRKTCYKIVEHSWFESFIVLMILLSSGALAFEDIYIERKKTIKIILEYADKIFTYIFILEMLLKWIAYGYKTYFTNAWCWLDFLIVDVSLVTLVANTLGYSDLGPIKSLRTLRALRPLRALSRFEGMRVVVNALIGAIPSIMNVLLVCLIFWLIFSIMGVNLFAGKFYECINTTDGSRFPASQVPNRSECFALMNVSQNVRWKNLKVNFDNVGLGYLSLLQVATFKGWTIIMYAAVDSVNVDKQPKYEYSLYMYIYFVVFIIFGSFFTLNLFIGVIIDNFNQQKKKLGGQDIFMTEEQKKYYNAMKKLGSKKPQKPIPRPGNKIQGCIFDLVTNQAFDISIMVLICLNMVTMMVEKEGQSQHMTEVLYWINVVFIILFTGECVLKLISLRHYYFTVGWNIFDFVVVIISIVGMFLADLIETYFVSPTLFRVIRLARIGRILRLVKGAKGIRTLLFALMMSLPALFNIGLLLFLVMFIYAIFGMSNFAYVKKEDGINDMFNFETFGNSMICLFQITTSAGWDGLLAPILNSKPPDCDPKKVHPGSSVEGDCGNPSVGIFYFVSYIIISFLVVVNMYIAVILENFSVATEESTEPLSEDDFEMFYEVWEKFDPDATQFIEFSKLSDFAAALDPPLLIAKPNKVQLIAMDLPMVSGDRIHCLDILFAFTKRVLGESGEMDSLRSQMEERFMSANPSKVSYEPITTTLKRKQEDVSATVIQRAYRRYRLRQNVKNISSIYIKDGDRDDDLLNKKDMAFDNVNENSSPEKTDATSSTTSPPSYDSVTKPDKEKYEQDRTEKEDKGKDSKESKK
# Experimental: Whole-cell recordings were made of currents carried by voltage-activated sodium channels in HEK293 cells stably expressing human Nav1.7 channels. Recordings were made using patch pipettes with resistances of 2-3.5 MO when filled with internal solution, consisting of 61 mM CsF, 61 mM CsCl, 9 mM NaCl, 1.8 mM MgCl2, 9 mM EGTA, 14 mM creatine phosphate (tris salt), 4 mM MgATP, and 0.3 mM GTP (tris salt), 9 mM HEPES, pH adjusted to 7.2 with CsOH. The shank of the electrode was wrapped with Parafilm in order to reduce capacitance and allow optimal series resistance compensation without oscillation. Seals were obtained and the whole-cell configuration established with cells in Tyrode's solution (155 mM NaCl, 3.5 mM KCl, 1.5 mM CaCl2), 1 mM MgCl2, 10 mM HEPES, 10 mM glucose, pH adjusted to 7.4 with NaOH) with 10 mM TEACl. To ensure complete dialysis with pipette solution containing the test compounds, recordings began after 5 to 10 minutes after establishment of the whole-cell configuration.
# Currents were recorded at room temperature (21-23° C.) with an Axopatch 200 amplifier or […] amplifier and filtered at 5-10 kHz with a low-pass Bessel filter. The amplifier was tuned for partial compensation of series resistance (typically 70-80% of a total series resistance of 4-10 MO). Currents were digitized using a Digidata 1322A data acquisition interface controlled by pClamp9 or pClamp10 software (Axon Instruments) and analyzed using programs written in Igor Pro 4.0 (Wavemetrics, Lake Oswego, Oreg.). Currents were corrected for linear capacitative and leak currents determined using 5 mV hyperpolarizations delivered from the resting potential (usually −80 or −100 mV) and then appropriately scaled and subtracted.
# Sodium currents were evoked by 30-msec depolarizations from −100 mV to −20 mV. To assay use-dependent block, pulses were delivered at series of increasing rates: 0.05 Hz for 1-min, 0.33 Hz for 1-min, 1 Hz for 1-min, 3 Hz for 1-min, 5 Hz for 30 seconds, 10 Hz for 30 seconds, with 1 minute rest between each series of pulses. […]
# [1] = system: citric acid induced cough; assay: Citric acid induced cough in ovalbumin sensitized guinea pigs, inhaled treatment; format: in vivo, guinea pig; conditions: for inhibition of cough: inhaled one hour before 400 mM citric acid challenge, versus vehicle group; for Cough Count: total cough count of each individual animal, inhaled, one hour before citric acid
# Experimental: Dunkin Hartley Guinea pigs were used in this study (male and female). On Day 0 all animals were sensitized with an intraperitoneal and subcutaneous injection of 50 mg chicken egg albumin (ovalbumin). Animals were administered 1 mL of a 50 mg/mL ovalbumin in 0.9% w/v saline solution via the intraperitoneal route and 0.5 mL of the same solution into 2 separate subcutaneous sites (1 mL in total divided between the left and right flank). All animals were administered a single intraperitoneal dose of pyrilamine (15 mg/kg) at a dose volume of 1 mL/kg approximately 30 minutes prior to ovalbumin challenge on Day 14 to inhibit histamine-induced bronchospasm. On Day 14, animals were challenged with aerosolised ovalbumin in 0.9% w/v saline (3 mg/mL) for 15 min.
# Animals were placed in groups in an acrylic box. Then 8 mL of ovalbumin in saline was placed in each of two jet nebulisers (Sidestream®). Compressed air was passed through each nebuliser at approximately 6 L/min and the output of the nebulisers passed into the box containing the animals. On Day 15, approximately 24 hours after the inflammatory challenge with ovalbumin, animals were dosed with either vehicle, compound 1, or compound 2 by inhalation. One hour following the end of vehicle, compound 1, or compound 2 administration on Day 15, animals were placed into a whole body plethysmograph connected to a Buxco Finepointe system. All animals were then exposed to nebulized 400 mM citric acid for 7 minutes via an Aeroneb® nebuliser.
# Cough counts and respiratory parameters (respiratory rate, tidal volume, minute volume and Penh) were recorded throughout the exposure period and for 10 minutes following the end of nebulization period.
# Nav1.5 sodium channels = target: T2, Nav1.5 sodium channels (Homo sapiens, UniProt Q14524); assay: Thallium flux assay, extracellular block of sodium channel in HEK293 cells; format: cell-based; conditions: HEK cells
# T2 construct: expressed in transfected cells
# T2 sequence (Q14524 whole entry): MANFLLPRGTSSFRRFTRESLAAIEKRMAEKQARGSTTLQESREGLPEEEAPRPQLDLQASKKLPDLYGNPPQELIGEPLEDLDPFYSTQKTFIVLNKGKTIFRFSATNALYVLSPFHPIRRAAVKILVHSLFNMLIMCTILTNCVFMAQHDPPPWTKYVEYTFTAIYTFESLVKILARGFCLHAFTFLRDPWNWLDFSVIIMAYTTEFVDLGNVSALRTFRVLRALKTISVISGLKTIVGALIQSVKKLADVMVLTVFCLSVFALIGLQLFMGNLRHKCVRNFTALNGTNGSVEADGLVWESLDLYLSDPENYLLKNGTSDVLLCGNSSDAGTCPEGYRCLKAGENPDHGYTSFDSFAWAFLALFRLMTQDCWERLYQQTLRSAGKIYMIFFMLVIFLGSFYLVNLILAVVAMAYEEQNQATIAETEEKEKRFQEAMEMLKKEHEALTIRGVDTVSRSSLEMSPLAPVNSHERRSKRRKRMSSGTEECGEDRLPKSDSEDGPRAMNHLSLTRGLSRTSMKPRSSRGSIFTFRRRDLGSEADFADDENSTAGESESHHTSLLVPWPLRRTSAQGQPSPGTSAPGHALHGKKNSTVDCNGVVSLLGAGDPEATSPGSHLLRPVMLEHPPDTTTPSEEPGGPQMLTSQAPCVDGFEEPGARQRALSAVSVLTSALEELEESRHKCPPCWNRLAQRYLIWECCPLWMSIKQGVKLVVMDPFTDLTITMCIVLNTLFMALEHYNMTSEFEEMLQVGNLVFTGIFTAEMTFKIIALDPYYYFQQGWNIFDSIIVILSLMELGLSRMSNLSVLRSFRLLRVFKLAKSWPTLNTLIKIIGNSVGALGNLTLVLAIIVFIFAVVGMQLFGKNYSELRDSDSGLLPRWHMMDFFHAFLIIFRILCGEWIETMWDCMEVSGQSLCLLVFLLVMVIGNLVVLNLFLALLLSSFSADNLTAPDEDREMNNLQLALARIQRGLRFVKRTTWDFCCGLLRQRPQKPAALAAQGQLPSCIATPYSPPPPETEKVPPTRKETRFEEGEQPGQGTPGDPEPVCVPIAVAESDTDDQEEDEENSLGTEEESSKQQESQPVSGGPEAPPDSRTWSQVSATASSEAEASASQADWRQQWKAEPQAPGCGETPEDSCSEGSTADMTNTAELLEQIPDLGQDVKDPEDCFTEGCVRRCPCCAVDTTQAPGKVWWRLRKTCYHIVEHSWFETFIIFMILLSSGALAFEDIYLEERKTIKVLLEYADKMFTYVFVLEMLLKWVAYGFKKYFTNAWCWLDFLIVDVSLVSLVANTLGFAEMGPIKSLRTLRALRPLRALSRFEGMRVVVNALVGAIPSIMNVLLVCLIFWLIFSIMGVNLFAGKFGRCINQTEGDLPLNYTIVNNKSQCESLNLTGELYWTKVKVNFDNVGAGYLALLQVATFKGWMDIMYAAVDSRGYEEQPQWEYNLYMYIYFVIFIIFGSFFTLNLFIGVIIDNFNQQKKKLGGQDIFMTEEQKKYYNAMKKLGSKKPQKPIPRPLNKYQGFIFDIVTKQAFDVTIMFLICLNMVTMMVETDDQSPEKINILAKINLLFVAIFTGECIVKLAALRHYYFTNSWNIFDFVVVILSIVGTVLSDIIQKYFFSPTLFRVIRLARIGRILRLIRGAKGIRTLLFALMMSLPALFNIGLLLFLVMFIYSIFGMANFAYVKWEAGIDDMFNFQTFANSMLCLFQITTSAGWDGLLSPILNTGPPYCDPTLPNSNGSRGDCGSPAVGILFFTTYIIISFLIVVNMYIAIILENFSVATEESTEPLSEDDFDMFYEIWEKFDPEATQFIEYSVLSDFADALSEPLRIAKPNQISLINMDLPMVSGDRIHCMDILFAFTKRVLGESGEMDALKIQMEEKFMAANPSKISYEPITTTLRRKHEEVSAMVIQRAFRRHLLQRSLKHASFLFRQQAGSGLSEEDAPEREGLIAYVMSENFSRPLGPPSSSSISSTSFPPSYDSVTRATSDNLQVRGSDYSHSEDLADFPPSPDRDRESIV
# Experimental: (§1) Charged sodium channel blockers were tested for extracellular block of voltage-gated sodium channels in a thallium flux assay. Briefly, human embryonic kidney (HEK293) cells stably expressing either the Nav1.5 or Nav1.7 sodium channels were plated in 384 well plates. After overnight culture at 37° C., the cell culture medium was replaced the thallium-sensitive FluxOR dye (FluxOR assay kit, Thermo Fisher). Following a 60 minute incubation at room temperature, the dye-loading solution was replaced with assay buffer and the plates were loaded into a FDSS 7000EX multi-well plate reader (Hamamatsu). Dye fluorescence was measured using Fluo-4 filters (excitation 470 nm, emission 540 nm) at 1 Hz. Baseline fluorescence was measured for 30 s, followed by the addition of 15 μL/well of charged sodium channel blocker compounds. 10 minutes after compound addition, the cells were stimulated with a Tl^+ stimulus buffer and fluorescence measured. Tetraethylammonium (TEA) was used to block Kv channels and veratridine to block Nav channel inactivation. The fluorescence data was normalized with respect to no veratridine stimulus buffer control in order to isolate and measure the Nav channel component of the thallium flux.
# Nav1.7 sodium channels = target: T3, Nav1.7 sodium channels (Homo sapiens, UniProt Q15858); assay: as above; format: cell-based
# T3 construct: expressed in transfected cells
# T3 sequence (Q15858 whole entry): as the sequence (Q15858 whole entry) above
# Experimental: as §1
# [2] = system: endogenous Nav currents in TRPV1 expressing DRG neurons; assay: Patch clamp of sodium currents in DRG neurons after pretreatment with capsaicin + blocker; format: cell-based, mouse; conditions: 100 micromolar with 300 nM capsaicin for 30 minutes, then washed off
# Experimental: Charged sodium channel blockers were tested for intracellular block of voltage-gated sodium currents after entry through activated TRPV1 channels in dissociated mouse dorsal root ganglia (DRG) neurons in vitro. DRG neurons from 8-week-old C57/B16 mice were removed and placed in DMEM containing 1% penicillin-streptomycin (Sigma), then treated for 90 minutes with 5 mg/mL collagenase, 1 mg/mL Dispase II (Roche). Cells were triturated in the presence of DNase I […] (50 U), centrifuged through 10% BSA (Sigma), resuspended in 1 mL of Neurobasal medium (Sigma)+1X B27 supplement (Thermo Fisher) and 1% penicillin-streptomycin, and plated onto 35-mm tissue culture dishes (Becton Dickinson) coated with 20 μg/mL laminin, at 8,000-9,000 cells per dish. Cultures were incubated at 37° C. under 5% CO2. Recordings were made at room temperature within 24 hours of plating. The DRG neurons were treated with 300 nM capsaicin alone or 300 nM capsaicin+100 μM charged sodium channel blocker in external solution for 30 minutes, after which the blocker was washed off with fresh external solution. Whole-cell voltage-clamp recordings of sodium currents were performed in small diameter DRG neurons and then the expression of TRPV1 measured by perfusion of 1 μM capsaicin. […]
compound,measurement,setting,value
"CCCC(C(=O)Nc1c(C)cccc1C)[N+]1(CC)CCCCC1 (centres unmarked) [Compound 2, 1-(1-((2,6-dimethylphenyl)amino)-1-oxopentan-2-yl)-1-ethylpiperidin-1-ium]","sodium current remaining after use-dependent block, % of the initial value",human Nav1.7 channels,about 14%
same,inhibition of cough,[1],65%
same,Cough Count,[1],8 and 0 (5×) and 2 (2×) and 13 and 11 and 6 and 1
"CCC[N+]1(C(CC)C(=O)Nc2c(C)cccc2C)CCCCC1 (centres unmarked) [Compound 1, 1-(1-(2,6-dimethylphenylamino)-1-oxobutan-2-yl)-1-propylpiperidinium chloride]","sodium current remaining after use-dependent block, % of the initial value",human Nav1.7 channels,about 15%
same,extracellular block of Nav1.5,"Nav1.5 sodium channels; doses of up to 1 mM, applied extracellularly",did not exhibit significant extracellular block
same,extracellular concentration at which dose dependent block of Nav1.5 starts,"Nav1.5 sodium channels; thallium flux, FIG. 3",≥ 10 millimolar
same,Nav subtype selectivity,"Nav1.7 sodium channels; Nav1.5 versus Nav1.7, thallium flux",did not display any Nav subtype selectivity
same,extracellular block of Nav1.7,"Nav1.7 sodium channels; doses of up to 1 mM, applied extracellularly, HEK cells",did not exhibit significant extracellular block
same,extracellular concentration at which dose dependent block of Nav1.7 starts,"Nav1.7 sodium channels; thallium flux, HEK cells, FIG. 4",≥ 10 millimolar
same,sodium currents in DRG neurons versus capsaicin alone,[2],considerably smaller
same,inhibition of cough,[1],81%
same,Cough Count,[1],4 (2×) and 0 (7×) and 2 and 7 and 6
"CC[N+](CC)(CC)CC(=O)Nc1c(C)cccc1C [QX-314, reference compound]","sodium current remaining after use-dependent block, % of the initial value",human Nav1.7 channels,about 62%
same,sodium currents in DRG neurons versus capsaicin alone,[2],robust block
